Patent US20230085307A1, “PYRIDAZINONE COMPOUND AND HERBICIDE” (NISSAN CHEMICAL CORPORATION, priority 2019, published 2023)

Tests used:
[1] = system: lambsquarters; test: Test Example 4: herbicidal effect by soil treatment (Table 19, symbol O); assay type: in vivo, lambsquarters (Chenopodium album); conditions: amount of applied herbicide 320 g/ha
Outline: (§1)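 In this soil treatment, the formulated compound reached the seeds only through the soil: seeds were buried about 1.5 cm deep in sterilized diluvial soil, then the diluted emulsion was sprayed over the surface. After three weeks at 25° C. to 30° C. in a greenhouse, effects were graded on criteria from an earlier test.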

[2] = system: rice flat sedge; test: Test Example 3: herbicidal effect by foliage application, Wagner pot (Table 18, symbol E); assay type: in vivo, rice flat sedge (Cyperus iria); conditions: 320 g/ha
Outline: (§2)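 Plants were sown in alluvial soil held under 0.1–0.5 cm standing water and grown 14 days in a greenhouse at 25–30 °C. An emulsifiable formulation, water-diluted to the set dose, was then sprayed onto the foliage, and effects were scored three weeks later using previously defined criteria.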

[3] = system: barnyard grass; test: Test Example 5: herbicidal effect by foliage application, plastic box (Table 20, symbol H); assay type: in vivo, barnyard grass (Echinochloa crus-galli); conditions: 320 g/ha, foliage application after 14-day growth, evaluated three weeks after application
Outline: (§3)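 Plants were sown into sterilized diluvial soil under about 1.5 cm cover and kept in a greenhouse at 25° C. to 30° C. Fourteen days on, foliage received an even spray of the diluted emulsion. Herbicidal or crop effect was judged three weeks afterwards.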

[4] = system: lambsquarters; test: Test Example 5: herbicidal effect by foliage application, plastic box (Table 20, symbol O); assay type: in vivo, lambsquarters (Chenopodium album); conditions: 320 g/ha, foliage application after 14-day growth, evaluated three weeks after application
Outline: as §3

[5] = system: barnyard grass; test: Test Example 4: herbicidal effect by soil treatment (Table 19, symbol H); assay type: in vivo, barnyard grass (Echinochloa crus-galli); conditions: amount of applied herbicide 320 g/ha
Outline: as §1

[6] = system: persian speedwell; test: Test Example 5: herbicidal effect by foliage application, plastic box (Table 20, symbol R); assay type: in vivo, Persian speedwell (Veronica persica); conditions: 320 g/ha, foliage application after 14-day growth, evaluated three weeks after application
Outline: as §3

[7] = system: redroot pigweed; test: Test Example 4: herbicidal effect by soil treatment (Table 19, symbol N); assay type: in vivo, redroot pigweed (Amaranthus retroflexus); conditions: amount of applied herbicide 320 g/ha
Outline: as §1

[8] = system: windgrass; test: Test Example 5: herbicidal effect by foliage application, plastic box (Table 20, symbol L); assay type: in vivo, windgrass (Apera spica-venti); conditions: 320 g/ha, foliage application after 14-day growth, evaluated three weeks after application
Outline: as §3

[9] = system: southern crabgrass; test: Test Example 5: herbicidal effect by foliage application, plastic box (Table 20, symbol F); assay type: in vivo, southern crabgrass (Digitaria ciliaris); conditions: 320 g/ha, foliage application after 14-day growth, evaluated three weeks after application
Outline: as §3

[10] = system: velvetleaf; test: Test Example 4: herbicidal effect by soil treatment (Table 19, symbol M); assay type: in vivo, velvetleaf (Abutilon theophrasti); conditions: amount of applied herbicide 320 g/ha
Outline: as §1

[11] = system: chickweed; test: Test Example 5: herbicidal effect by foliage application, plastic box (Table 20, symbol P); assay type: in vivo, common chickweed (Stellaria media); conditions: 320 g/ha, foliage application after 14-day growth, evaluated three weeks after application
Outline: as §3

[12] = system: chickweed; test: Test Example 4: herbicidal effect by soil treatment (Table 19, symbol P); assay type: in vivo, common chickweed (Stellaria media); conditions: amount of applied herbicide 320 g/ha
Outline: as §1

[13] = system: Italian ryegrass; test: Test Example 5: herbicidal effect by foliage application, plastic box (Table 20, symbol K); assay type: in vivo, Italian ryegrass (Lolium multiflorum); conditions: 320 g/ha, foliage application after 14-day growth, evaluated three weeks after application
Outline: as §3

[14] = system: barnyard grass; test: Test Example 3: herbicidal effect by foliage application, Wagner pot (Table 18, symbol H); assay type: in vivo, barnyard grass (Echinochloa crus-galli); conditions: 320 g/ha
Outline: as §2

[15] = system: southern crabgrass; test: Test Example 4: herbicidal effect by soil treatment (Table 19, symbol F); assay type: in vivo, southern crabgrass (Digitaria ciliaris); conditions: amount of applied herbicide 320 g/ha
Outline: as §1

[16] = system: Chinese sprangletop; test: Test Example 3: herbicidal effect by foliage application, Wagner pot (Table 18, symbol D); assay type: in vivo, chinese sprangletop (Leptochloa chinensis); conditions: 320 g/ha
Outline: as §2

[17] = system: velvetleaf; test: Test Example 5: herbicidal effect by foliage application, plastic box (Table 20, symbol M); assay type: in vivo, velvetleaf (Abutilon theophrasti); conditions: 320 g/ha, foliage application after 14-day growth, evaluated three weeks after application
Outline: as §3

[18] = system: wild oat; test: Test Example 4: herbicidal effect by soil treatment (Table 19, symbol I); assay type: in vivo, wild oat (Avena fatua); conditions: amount of applied herbicide 320 g/ha
Outline: as §1

[19] = system: green foxtail; test: Test Example 4: herbicidal effect by soil treatment (Table 19, symbol G); assay type: in vivo, green foxtail (Setaria viridis); conditions: amount of applied herbicide 320 g/ha
Outline: as §1

[20] = system: wild oat; test: Test Example 5: herbicidal effect by foliage application, plastic box (Table 20, symbol I); assay type: in vivo, wild oat (Avena fatua); conditions: 320 g/ha, foliage application after 14-day growth, evaluated three weeks after application
Outline: as §3

[21] = system: green foxtail; test: Test Example 5: herbicidal effect by foliage application, plastic box (Table 20, symbol G); assay type: in vivo, green foxtail (Setaria viridis); conditions: 320 g/ha, foliage application after 14-day growth, evaluated three weeks after application
Outline: as §3

[22] = system: redroot pigweed; test: Test Example 5: herbicidal effect by foliage application, plastic box (Table 20, symbol N); assay type: in vivo, redroot pigweed (Amaranthus retroflexus); conditions: 320 g/ha, foliage application after 14-day growth, evaluated three weeks after application
Outline: as §3

[23] = system: persian speedwell; test: Test Example 4: herbicidal effect by soil treatment (Table 19, symbol R); assay type: in vivo, Persian speedwell (Veronica persica); conditions: amount of applied herbicide 320 g/ha
Outline: as §1

[24] = system: Italian ryegrass; test: Test Example 4: herbicidal effect by soil treatment (Table 19, symbol K); assay type: in vivo, Italian ryegrass (Lolium multiflorum); conditions: amount of applied herbicide 320 g/ha
Outline: as §1

[25] = system: windgrass; test: Test Example 4: herbicidal effect by soil treatment (Table 19, symbol L); assay type: in vivo, windgrass (Apera spica-venti); conditions: amount of applied herbicide 320 g/ha
Outline: as §1

[26] = system: blackgrass; test: Test Example 5: herbicidal effect by foliage application, plastic box (Table 20, symbol J); assay type: in vivo, blackgrass (Alopecurus myosuroides); conditions: 320 g/ha, foliage application after 14-day growth, evaluated three weeks after application
Outline: as §3

Cc1nn(C)c(=O)c(-c2c(-c3ccc(OC(F)F)cc3)sc3c(F)cccc23)c1O [4-046]
Herbicidal effect by soil treatment, O: lambsquarters [1]: 1 (Herbicidal rate of 5% or more and less than 20%) | herbicidal effect on rice flat sedge (E) [2]: 5 (Herbicidal rate of 90% or more (almost completely withered)) | herbicidal effect on H: barnyard grass (evaluation grade 0-5) [3]: 5 (Herbicidal rate of 90% or more (almost completely withered)) | herbicidal effect on O: lambsquarters (evaluation grade 0-5) [4]: 5 (Herbicidal rate of 90% or more (almost completely withered)) | Herbicidal effect by soil treatment, H: barnyard grass [5]: 3 (Herbicidal rate of 40% or more and less than 70%) | herbicidal effect on R: persian speedwell (evaluation grade 0-5) [6]: 5 (Herbicidal rate of 90% or more (almost completely withered)) | Herbicidal effect by soil treatment, N: redroot pigweed [7]: 5 (Herbicidal rate of 90% or more (almost completely withered)) | herbicidal effect on L: windgrass (evaluation grade 0-5) [8]: 5 (Herbicidal rate of 90% or more (almost completely withered)) | herbicidal effect on F: southern crabgrass (evaluation grade 0-5) [9]: 0 (Herbicidal rate of 5% or less (almost no effect)) | Herbicidal effect by soil treatment, M: velvetleaf [10]: 3 (Herbicidal rate of 40% or more and less than 70%) | herbicidal effect on P: chickweed (evaluation grade 0-5) [11]: 5 (Herbicidal rate of 90% or more (almost completely withered)) | Herbicidal effect by soil treatment, P: chickweed [12]: 3 (Herbicidal rate of 40% or more and less than 70%) | herbicidal effect on K: Italian ryegrass (evaluation grade 0-5) [13]: 5 (Herbicidal rate of 90% or more (almost completely withered)) | herbicidal effect on barnyard grass (H) [14]: 5 (Herbicidal rate of 90% or more (almost completely withered)) | Herbicidal effect by soil treatment, F: southern crabgrass [15]: 0 (Herbicidal rate of 5% or less (almost no effect)) | herbicidal effect on Chinese sprangletop (D) [16]: 1 (Herbicidal rate of 5% or more and less than 20%) | herbicidal effect on M: velvetleaf (evaluation grade 0-5) [17]: 5 (Herbicidal rate of 90% or more (almost completely withered)) | Herbicidal effect by soil treatment, I: wild oat [18]: 0 (Herbicidal rate of 5% or less (almost no effect)) | Herbicidal effect by soil treatment, G: green foxtail [19]: 3 (Herbicidal rate of 40% or more and less than 70%) | herbicidal effect on I: wild oat (evaluation grade 0-5) [20]: 4 (Herbicidal rate of 70% or more and less than 90%) | herbicidal effect on G: green foxtail (evaluation grade 0-5) [21]: 5 (Herbicidal rate of 90% or more (almost completely withered)) | herbicidal effect on N: redroot pigweed (evaluation grade 0-5) [22]: 5 (Herbicidal rate of 90% or more (almost completely withered)) | Herbicidal effect by soil treatment, R: persian speedwell [23]: 5 (Herbicidal rate of 90% or more (almost completely withered)) | Herbicidal effect by soil treatment, K: Italian ryegrass [24]: 3 (Herbicidal rate of 40% or more and less than 70%) | Herbicidal effect by soil treatment, L: windgrass [25]: 0 (Herbicidal rate of 5% or less (almost no effect)) | herbicidal effect on J: blackgrass (evaluation grade 0-5) [26]: 4 (Herbicidal rate of 70% or more and less than 90%)
